Test results taken from ChEMBL document CHEMBL1201862, “PubChem BioAssay data set” (2004).
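Method: 48-hour compound exposure of cells in 96-well plates, five concentrations, linear interpolation of endpoints. Abbreviation: GI50, concentration required for 50% inhibition of growth.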 Activity calls are given as the source filed them. No stated cut-off is given here; in the data, active = GI50 up to about 1.1 µM and inactive = higher.

Columns and labels:
Test in all cases: inhibition of tumour cell growth, NCI panel, 48 h
[1] = test system: T47D
[2] = test system: HT-29
[3] = test system: KM12
[4] = test system: PC-3
[5] = test system: SK-OV-3
[6] = test system: SNB-19
[7] = test system: MCF7
[8] = test system: NCI-H23
[9] = test system: EKVX
[10] = test system: HCT-116
[11] = test system: OVCAR-4
[12] = test system: SNB-75
[13] = test system: COLO 205
[14] = test system: A549
[15] = test system: HOP-62
[16] = test system: MOLT-4
[17] = test system: A498
[18] = test system: RPMI-8226
[19] = test system: ACHN
[20] = test system: LOX IMVI
[21] = test system: U-251
[22] = test system: IGROV-1
[23] = test system: MDA-MB-231
[24] = test system: SK-MEL-5
[25] = test system: TK-10
[26] = test system: NCI-H460
[27] = test system: UACC-257
[28] = test system: HOP-92
[29] = test system: HCT-15
[30] = test system: SR
[31] = test system: SK-MEL-28
[32] = test system: M14
[33] = test system: RXF 393
[34] = test system: SF-295
[35] = test system: UACC-62
[36] = test system: MDA-MB-435
[37] = test system: NCI-H226
[38] = test system: Hs-578T
[39] = test system: UO-31
[40] = test system: SF-539
[41] = test system: DU-145
[42] = test system: SF-268
[43] = test system: Malme-3M
[44] = test system: SK-MEL-2
[45] = test system: NCI-H522
[46] = test system: CCRF-CEM
[47] = test system: K562
[48] = test system: OVCAR-3
[49] = test system: NCI/ADR-RES
[50] = test system: HL-60
[51] = test system: CAKI-1
[52] = test system: BT-549
[53] = test system: 786-0
[54] = test system: SN12C
[55] = test system: MDA-N
[56] = test system: OVCAR-5
[57] = test system: OVCAR-8
[58] = test system: SW-620

C/C(=N\Nc1ccc2ccccc2n1)c1ccccc1O
GI50 [1]: 3.96 µM (inactive) | GI50 [2]: 8.15 µM (inactive) | GI50 [3]: > 100 µM (inactive) | GI50 [4]: > 100 µM (inactive) | GI50 [5]: 29.8 µM (inactive) | GI50 [6]: > 63.8 µM (inactive) | GI50 [7]: 5.31 µM (inactive) | GI50 [8]: > 100 µM (inactive) | GI50 [9]: 19.6 µM (inactive) | GI50 [10]: > 100 µM (inactive) | GI50 [11]: > 100 µM (inactive) | GI50 [12]: < 0.01 µM (active) | GI50 [13]: > 100 µM (inactive) | GI50 [14]: > 100 µM (inactive) | GI50 [15]: 14 µM (inactive) | GI50 [16]: 4.69 µM (inactive) | GI50 [17]: > 100 µM (inactive) | GI50 [18]: 7.23 µM (inactive) | GI50 [19]: > 100 µM (inactive) | GI50 [20]: > 100 µM (inactive) | GI50 [21]: 54.1 µM (inactive) | GI50 [22]: > 100 µM (inactive) | GI50 [23]: > 83 µM (inactive) | GI50 [24]: > 100 µM (inactive) | GI50 [25]: > 86.3 µM (inactive) | GI50 [26]: > 92.5 µM (inactive) | GI50 [27]: > 100 µM (inactive) | GI50 [28]: > 100 µM (inactive) | GI50 [29]: 11.4 µM | GI50 [30]: 3.15 µM (inactive) | GI50 [31]: > 100 µM (inactive) | GI50 [32]: > 100 µM (inactive) | GI50 [33]: > 72.6 µM (inactive) | GI50 [34]: 8.07 µM (inactive) | GI50 [35]: > 100 µM (inactive) | GI50 [36]: > 100 µM (inactive) | GI50 [37]: > 90.2 µM (inactive) | GI50 [38]: > 83.2 µM (inactive) | GI50 [39]: 70.8 µM (inactive) | GI50 [40]: > 68.9 µM (inactive) | GI50 [41]: > 100 µM (inactive) | GI50 [42]: 24.5 µM (inactive) | GI50 [43]: > 100 µM (inactive) | GI50 [44]: > 100 µM (inactive) | GI50 [45]: > 100 µM (inactive) | GI50 [46]: 3.33 µM (inactive) | GI50 [47]: 7.38 µM (inactive) | GI50 [48]: 2.13 µM (inactive) | GI50 [49]: > 37.5 µM (inactive) | GI50 [50]: > 100 µM (inactive) | GI50 [51]: > 100 µM (inactive) | GI50 [52]: > 100 µM (inactive) | GI50 [53]: > 37.3 µM (inactive) | GI50 [54]: > 100 µM (inactive) | GI50 [55]: > 100 µM (inactive) | GI50 [56]: > 100 µM (inactive) | GI50 [57]: 56.1 µM (inactive) | GI50 [58]: > 27.6 µM (inactive)

Cc1ccc(NC(=O)c2ccccc2C(=O)O)cc1C
GI50 [1]: > 100 µM (inactive) | GI50 [2]: > 100 µM (inactive) | GI50 [3]: > 100 µM (inactive) | GI50 [4]: > 100 µM (inactive) | GI50 [5]: > 100 µM (inactive) | GI50 [6]: > 100 µM (inactive) | GI50 [7]: > 100 µM (inactive) | GI50 [8]: > 100 µM (inactive) | GI50 [9]: > 100 µM (inactive) | GI50 [10]: > 100 µM (inactive) | GI50 [11]: > 100 µM (inactive) | GI50 [12]: > 100 µM (inactive) | GI50 [13]: > 100 µM (inactive) | GI50 [14]: > 100 µM (inactive) | GI50 [15]: > 100 µM (inactive) | GI50 [16]: > 100 µM (inactive) | GI50 [17]: > 100 µM (inactive) | GI50 [18]: > 100 µM (inactive) | GI50 [19]: > 100 µM (inactive) | GI50 [20]: > 100 µM (inactive) | GI50 [21]: > 100 µM (inactive) | GI50 [22]: > 100 µM (inactive) | GI50 [23]: > 100 µM (inactive) | GI50 [24]: > 100 µM (inactive) | GI50 [25]: > 100 µM (inactive) | GI50 [26]: > 100 µM (inactive) | GI50 [27]: > 100 µM (inactive) | GI50 [28]: > 100 µM (inactive) | GI50 [29]: > 100 µM | GI50 [30]: > 100 µM (inactive) | GI50 [31]: > 100 µM (inactive) | GI50 [32]: > 100 µM (inactive) | GI50 [33]: > 100 µM (inactive) | GI50 [34]: > 100 µM (inactive) | GI50 [35]: > 100 µM (inactive) | GI50 [36]: > 100 µM (inactive) | GI50 [37]: > 100 µM (inactive) | GI50 [38]: > 100 µM (inactive) | GI50 [40]: > 100 µM (inactive) | GI50 [41]: > 100 µM (inactive) | GI50 [42]: > 100 µM (inactive) | GI50 [43]: > 100 µM (inactive) | GI50 [44]: > 100 µM (inactive) | GI50 [45]: > 100 µM (inactive) | GI50 [47]: > 100 µM (inactive) | GI50 [48]: > 100 µM (inactive) | GI50 [49]: > 100 µM (inactive) | GI50 [51]: > 100 µM (inactive) | GI50 [52]: > 100 µM (inactive) | GI50 [53]: > 100 µM (inactive) | GI50 [54]: > 100 µM (inactive) | GI50 [55]: > 100 µM (inactive) | GI50 [56]: > 100 µM (inactive) | GI50 [57]: > 100 µM (inactive) | GI50 [58]: > 100 µM (inactive)

CCOC1Oc2ccccc2-c2nc(SC)ncc21 (configuration not stated)
GI50 [1]: 27.4 µM (inactive) | GI50 [2]: 52.4 µM (inactive) | GI50 [3]: > 100 µM (inactive) | GI50 [4]: > 100 µM (inactive) | GI50 [5]: > 100 µM (inactive) | GI50 [6]: > 100 µM (inactive) | GI50 [7]: 66.1 µM (inactive) | GI50 [8]: > 100 µM (inactive) | GI50 [9]: 36 µM (inactive) | GI50 [10]: 83.2 µM (inactive) | GI50 [11]: > 100 µM (inactive) | GI50 [12]: > 100 µM (inactive) | GI50 [13]: > 100 µM (inactive) | GI50 [14]: > 100 µM (inactive) | GI50 [16]: 50.8 µM (inactive) | GI50 [17]: 28.9 µM (inactive) | GI50 [18]: 70 µM (inactive) | GI50 [19]: > 100 µM (inactive) | GI50 [20]: 80.7 µM (inactive) | GI50 [21]: > 100 µM (inactive) | GI50 [22]: 35.2 µM (inactive) | GI50 [23]: 62.8 µM (inactive) | GI50 [24]: 52.5 µM (inactive) | GI50 [25]: 68.4 µM (inactive) | GI50 [26]: 55.6 µM (inactive) | GI50 [27]: > 100 µM (inactive) | GI50 [28]: 29.2 µM (inactive) | GI50 [29]: 79.3 µM | GI50 [30]: 87.1 µM (inactive) | GI50 [32]: > 100 µM (inactive) | GI50 [33]: > 100 µM (inactive) | GI50 [34]: > 100 µM (inactive) | GI50 [35]: 75.5 µM (inactive) | GI50 [36]: > 100 µM (inactive) | GI50 [37]: > 100 µM (inactive) | GI50 [38]: 79.8 µM (inactive) | GI50 [39]: 51.3 µM (inactive) | GI50 [40]: > 100 µM (inactive) | GI50 [41]: 96.6 µM (inactive) | GI50 [42]: > 100 µM (inactive) | GI50 [44]: > 100 µM (inactive) | GI50 [45]: 71.3 µM (inactive) | GI50 [46]: > 100 µM (inactive) | GI50 [48]: > 100 µM (inactive) | GI50 [49]: 82.8 µM (inactive) | GI50 [50]: 45.9 µM (inactive) | GI50 [51]: > 100 µM (inactive) | GI50 [52]: 78 µM (inactive) | GI50 [53]: > 100 µM (inactive) | GI50 [54]: 89.7 µM (inactive) | GI50 [55]: 64.1 µM (inactive) | GI50 [56]: > 100 µM (inactive) | GI50 [57]: > 100 µM (inactive) | GI50 [58]: > 100 µM (inactive)
